Holding throughout (test): NCI anticancer screen, dose series, 48 h
Assay [1] concerns SK-OV-3 ovarian.
The subject of assay [2] is SK-MEL-28 melanoma.
Assay [3] has as its system SF-268 CNS.
For assay [4], the system named is SN12C renal.
Assay [5] has as its system UACC-257 melanoma.
The subject of assay [6] is UO-31 renal.
In assay [7] the test system is A549 NSCLC.
In assay [8] the test system is CAKI-1 renal.
Assay [9] relates to UACC-62 melanoma.
Assay [10] concerns NCI-H460 lung.

Structures are written as SMILES.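 Assay format: 96-well plates, 48-hour exposure. GI50: concentration for 50% inhibition of growth. TGI is the concentration that stops growth completely.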 Where only a bound is given, the exact number is not on record here.

`CCOC(=O)OC1(c2ccccc2)CCN(C)CC1`: the TGI in assay [1], in [2], in assay [3], in [4], in [5] and in [6] was more than 100 µM each time. For the same compound, the TGI in assay [7], in assay [8], in [9] and in [10] was more than 100 µM each time.

In the case of `Cc1nn(C(=O)c2ccccc2O)c2c1C(c1ccc([N+](=O)[O-])cc1)SC(N)=N2` (stereo not given), the TGI in assay [1], in assay [2], in assay [3], in assay [4], in assay [5] and in [6] was more than 10 µM throughout. The TGI in assay [7], in assay [8], in [9] and in [10] was more than 10 µM each time.

With `C=CCN(c1cc(OC)c2[nH]c(C(=O)O)c(C)c2c1[N+](=O)[O-])S(C)(=O)=O`, the TGI in assay [1], in [2], in [3], in assay [4], in [5] and in [6] was more than 100 µM throughout. Also, the TGI in [7], in [8], in assay [9] and in assay [10] was more than 100 µM throughout.

Consider `O=C1c2cc3c(cc2-c2c1c1cc(F)c(F)cc1c(=O)n2C[C@H](O)CO)OCO3`, for which the GI50 was 0.0481 µM in assay [1]; 0.28 µM in assay [2]; 0.0411 µM in [3]; 0.033 µM in assay [4]; 0.143 µM in assay [5]; 0.0698 µM in [6]. Also, the GI50 was 0.069 µM in [7], 0.0288 µM in assay [8], 0.0153 µM in [9] and 0.031 µM in assay [10]. For the same compound, the TGI in [1] was 0.641 µM; in [2], 7.15 µM; in assay [3], more than 100 µM; in assay [4] it was 0.324 µM; in [5] it was 0.593 µM; in assay [6] it was 0.337 µM. Moreover, the TGI in assay [7] was found to be 1.12 µM; in assay [8], 0.206 µM; in assay [9], 0.0678 µM; in assay [10], 0.141 µM.

Take `CC1=[N+]([O-])C2(CCCC2)N(O)C1(C)C`: the TGI in assay [1], in [2], in assay [3], in [4], in assay [5] and in assay [6] was more than 100 µM throughout. Moreover, the TGI in assay [7], in assay [8], in [9] and in [10] was more than 100 µM each time.

In the case of `O=C(O[C@@H](/C=C/c1ccccc1)P1(=O)N(Cc2ccccc2)[C@@H]2CCCC[C@H]2N1Cc1ccccc1)c1ccccc1`, the TGI in [1] was more than 100 µM; in [2], more than 100 µM; in assay [3], more than 100 µM; in assay [4] it was 40.8 µM; in assay [5], more than 100 µM; in assay [6], 27.4 µM. Further, the TGI is more than 100 µM in assay [7], 4.41 µM in assay [8], more than 100 µM in assay [9] and more than 100 µM in [10].

Turning to `C=C1C[C@@H]2CC[C@@]34CC5O[C@H]6C(O[C@H]7CC[C@H](CC(=O)O[C@@H]8[C@@H](C)[C@@H]9O[C@@H]%10C[C@]%11(C[C@@H]%12O[C@]%13(C[C@H](C)[C@@H]%14O[C@@H]%15CC(C(COC(C)=O)OC(C)=O)O[C@@H]%15C[C@@H]%14O%13)C[C@H](C)[C@@H]%12O%11)O[C@@H]%10C[C@@H]9O[C@H]8CC8O[C@@H](CC[C@@H]1O2)C[C@@H](C)C8(O)CO)O[C@@H]7[C@@H]6O3)[C@H]5O4` (stereo not given in full), the TGI in assay [1] is more than 1 µM; in assay [2], more than 1 µM; in [3], more than 0.955 µM; in [4], more than 1 µM; in assay [5] it was more than 0.53 µM; in assay [6], more than 1 µM. Also, the TGI is more than 1 µM in assay [7], more than 1 µM in assay [8], more than 1 µM in assay [9] and more than 0.955 µM in assay [10].

Turning to `Clc1sc(Cl)c2c1[C@H](Br)C[C@@H]2Cl`, the TGI in assay [1] was more than 100 µM; in assay [2] it was 71 µM; in [3], 49.9 µM; in assay [4] it was 85.3 µM; in assay [5], 78.2 µM; in [6] it was 43.8 µM. Besides, the TGI in assay [7] was more than 100 µM; in assay [8] it was 64.2 µM; in [9], 69.1 µM; in assay [10], more than 100 µM.

For `COc1ccc(C(=C2C(=O)OC(=O)C2=C(C)C)c2ccc(OC)cc2)cc1`, the TGI in [1], in assay [2], in assay [3], in assay [4], in assay [5] and in assay [6] was more than 100 µM in each case. The TGI in assay [7], in assay [8], in assay [9] and in [10] was more than 100 µM each time.

Consider `CCC1(c2ccc(OC)c(OC)c2)CCN2C(=O)C(O)CC21` (stereo not given), for which the TGI in [1], in [2], in assay [3], in [4], in assay [5] and in assay [6] was more than 100 µM each time. The TGI in assay [7], in assay [8], in [9] and in assay [10] was more than 100 µM throughout.

For the compound `O=C1C=CC(=O)c2c(O)c(N3CCN(c4ncccn4)CC3)c(Cl)c(O)c21`, the TGI in assay [1] was 38.6 µM; in assay [2] it was 4.57 µM; in assay [3], 7.88 µM; in [4] it was 3.43 µM; in [5] it was 3.45 µM; in assay [6] it was 4.03 µM. Further, the TGI in assay [7] is 22.6 µM; in assay [8], 4.4 µM; in assay [9] it was 6.02 µM; in [10], more than 47.6 µM.

`Brc1ccc(/C(N=N/C(=N\Sc2ccccc2)c2ccc(Br)cc2)=N/Sc2ccccc2)cc1`: the TGI in assay [1], in [2], in assay [3], in [4], in assay [5] and in assay [6] was more than 100 µM throughout. Further, the TGI in [7], in [8], in [9] and in [10] was more than 100 µM throughout.
